Assay results from patent publication US10501454B2, “Monocyclic β-lactam-siderophore conjugate, and preparation method and use thereof” (Shanghai Institute of Materia Medica, Chinese Academy of …, priority 2016, dated 2019).
Structures can show the parent of a compound that is named as a salt.

What was measured:
[1] = tested on: Escherichia coli ATCC 35218; assay: MIC, broth microdilution, normal MH medium; type: cell-based; settings: Escherichia coli, ATCC35218, quality control strain, read-out: Antibacterial activity MIC, Escherichia coli ATCC 35218
Method: Strain for quality control: Escherichia coli ATCC35218, purchased from National Center of Clinical Laboratory.
(§1) Medium: MH liquid medium (OXOID).
(§2) Culture condition: cells were incubated at 35-37° C. for 16-18 h.
(§3) The broth microdilution method recommended by Clinical and Laboratory Standards Institute (CLSI), Performance Standards for Antimicrobial Susceptibility Testing; Twenty-Third Informational Supplement, M02-All, M07-A9 and M11-A8, 2013 was used to determine the MIC value of each test sample against each test strain in the normal MH medium and iron-deficient MH medium.
(§4) After diluting each sample to different concentrations with normal MH medium, 100 μl of each test sample solution at different concentrations was separately aspirated onto a 96-well sterile polystyrene plate. Drug solutions were added to the 1st to 10th well with the final concentrations of 16, 8, 4, 2, 1, 0.5, 0.25, 0.125, 0.06, and 0.03 mg/L in each well, respectively. The 11th well, as a blank control, was not added with drugs and bacteria. The 12th well, as a bacterial growth control, was added with bacteria but no drug.
The test bacterial liquid was adjusted to a bacterial suspension of 0.5 Mcfarland standard with physiological saline, and diluted with MH broth at 1:100, and then added to the drug solution so that a final concentration of the bacterial liquid was approximately 10^4 CFU/ml; 100 μl of the bacterial liquid was further added to each of the above wells (the total volume in each well is 200 μl), which was sealed and placed in a 35-37° C. incubator for 18-20 h for testing the result. The OD600 value was measured by a microplate reader, Minimal Inhibitory Concentration (MIC) of a drug is the lowest concentration of the drug which prevents growth of bacteria in the wells. 1.2.2 MIC in iron-deficient MH medium

[2] = tested on: Klebsiella pneumoniae (4 strains); assay: MIC, broth microdilution, normal MH medium; type: cell-based
Method: (§5) Supplier of the strains: all of the above strains were provided by Sichuan Primed Shines Bio-tech Co., Ltd. A single colony was isolated by streaking on agar plates for each strain prior to the experiment, and the cells freshly cultured at 37° C. overnight were appropriately diluted for the experiment.
as §1, §2, §3, §4
The OD600 value was measured by a microplate reader, Minimal Inhibitory Concentration (MIC) of a drug is the lowest concentration of the drug which prevents growth of bacteria in the wells. 1.2.2 MIC in iron-deficient MH medium

[3] = tested on: Escherichia coli (4 strains); assay: MIC, broth microdilution, iron-deficient MH medium; type: cell-based; settings: Escherichia coli; iron-deficient MH medium (16 mg/L 2,2'-bipyridine); clinical isolates (ESBLs); read-out: Antibacterial activity MIC, Escherichia coli (4 strains)
Method: as §5, §1, §2, §3
(§6) BPL was added to the normal MH medium to obtain a final concentration of 16 mg/L; According to the method in Section 1.2.1, 100 μl of each test sample solution at different concentrations was aspirated to the 1st to 10th well in a 96-well sterile polystyrene plate to obtain the final drug concentrations of 16, 8, 4, 2, 1, 0.5, 0.25, 0.125, 0.06, and 0.03 mg/L, respectively. Then, 100 μl of the test bacterial liquid was added to each well (200 μl per well), and the final concentration of the bacterial liquid was approximately 10^4 CFU/ml. After sealing, it was placed in a 35-37° C. incubator for 18-20 hours for testing the result. The OD600 value was measured by a microplate reader, Minimal Inhibitory Concentration (MIC) of a drug is the lowest concentration of the drug which prevents growth of bacteria in the wells.

[4] = tested on: Klebsiella pneumoniae (4 strains); assay: MIC, broth microdilution, iron-deficient MH medium; type: cell-based
Method: as §5, §1, §2, §3, §6

[5] = tested on: Pseudomonas aeruginosa (4 strains); assay: MIC, broth microdilution, iron-deficient MH medium; type: cell-based; settings: Pseudomonas aeruginosa; iron-deficient MH medium (16 mg/L 2,2'-bipyridine); multidrug-resistant clinical isolates (integrator I, IMP4); read-out: Antibacterial activity MIC, Pseudomonas aeruginosa (4 strains)
Method: as §5, §1, §2, §3, §6

[6] = Pharmacokinetic test in rats, intravenous; type: in vivo; settings: SD rats, intravenous 1.0 mg/kg, plasma
Method: 2.1.2 Test animals: 6 SD rats, male, weight: 200-220 g.
2.1.3 Drug Preparation: an appropriate amount of the sample was weighed and prepared into a 0.2 mg/mL solution with water for injection.
2.1.4 Administration of the drug: 6 SD rats, male, weight: 200-220 g, were randomly divided into two groups, 3 rats in each group. […] The intravenous dose was 1.0 mg/kg, and the intravenous volume was 5 mL/kg.
Intravenous administration: 2 min, 5 min, 15 min, 30 min, 45 min, 1 h, 1.5 h and 3 h after administration. At the above set time points, 0.3 ml of venous blood was taken from the posterior venous plexus of the rat eye, placed in a heparinized tube, centrifuged at 11,000 rpm for 5 min, then the plasma was separated and stored in a refrigerator at −20° C. All of the rats were fed 2 hours after administration.
After administration, the pharmacokinetic parameters were calculated using a non-compartmental model of WinNonlin 5.3 software (Pharsight, USA).

[7] = tested on: multidrug-resistant Klebsiella pneumoniae KR15-4 (KPC2); assay: In vivo efficacy in mice systemically infected with multidrug-resistant Klebsiella pneumoniae KR15-4 (KPC2); settings: Klebsiella pneumoniae; Kunming mice, intraperitoneal infection, drug s.c. 0.5 h and 4 h after infection, deaths over 7 days, Bliss method; read-out: ED50 Subcutaneous injection
Method: 4.1 Test strains: clinically isolated pathogenic multidrug-resistant Klebsiella pneumoniae KR15-4 (KPC2), provided by Sichuan Primed Shines Bio-tech Co., Ltd.
4.2 Test animals: Kunming mice, age: 4 to 5 weeks, weight: 18 to 22 g, half male, half female, SPF grade.
4.3 Test methods: Mice were randomly divided into several groups, 5 mice for each group, half male and half female, and 4 doses for each test drug: 12.5, 25, 50 and 100 mg/kg. The mice were intraperitoneally injected with 0.5 mL of 3.0×10^6 CFU/mL bacterial suspension for each mouse, and subcutaneously injected with the drug at the designed dose 0.5 h and 4 h after infection. The subcutaneous injection volume was 0.2 ml/20 g mouse weight; the number of deaths in mice was observed and recorded for 7 consecutive days. According to the number of deaths in mice, the half effective dose ED50 was calculated according to the Bliss method using the DAS 1.0 software, edited by Sun Ruiyuan et al.

## CC(C)C(O/N=C(\C(=O)N[C@@H]1C(=O)N(OS(=O)(=O)O)C1(C)C)c1csc(N)n1)c1cc(=O)c(O)cn1O (stereo partly drawn) [Compound 12, (3S)-3-((Z)-2-(2-aminothiazol-4-yl)-2-((1-(1,5-dihydroxy-4-oxo-1,4-dihydropyridin-2-yl)methylisopropyloxy)imine)acetamido)-2,2-dimethyl-4-oxoazetidine-1-hydrogen sulfate]
[1]
  MIC: < 0.03 µg/mL
[2]; Klebsiella pneumoniae, multi-drug resistant clinical isolates (KPC2), read-out: Antibacterial activity MIC, Klebsiella pneumoniae (4 strains)
  MIC: 0.5 to 1 µg/mL
[2]; from MIC of Table 2
  times more effective than BAL30072 in inhibitory activity against Klebsiella pneumoniae: 64-128 times
[3]
  MIC: 0.03 to 0.25 µg/mL
[4]; Klebsiella pneumoniae, iron-deficient MH medium (16 mg/L 2,2'-bipyridine), multi-drug resistant clinical isolates (KPC2), read-out: Antibacterial activity MIC, Klebsiella pneumoniae (4 strains)
  MIC: 0.25 to 0.5 µg/mL
[4]; iron-deficient MH medium, from MIC of Table 3
  times more effective than BAL30072 in inhibitory activity against Klebsiella pneumonia: 128-256 times
[5]
  MIC: 0.25 to 1 µg/mL
[6]
  Clearance CL: 0.66 ± 0.33 L/h/kg
  Half-life T1/2: 27 ± 6.6 min
[6]; male, rat, in vivo, read-out: Apparent Distribution Volume Vss
  Vd: 0.3 ± 0.03 L/kg
[6]; male, rat, in vivo, read-out: Area Under the Curve AUC0-4
  AUC(0-t): 1730 ± 697 ng·h/mL
[6]; male, rat, read-out: Residence Time MRT
  MRT: 30.6 ± 10.8 min
[7]
  ED50: 10.2 mg/kg
